{
  "source": "patent US20190216793A1",
  "about": "“COMPOSITIONS AND METHODS FOR TREATING NEGATIVE SYMPTOMS IN NON-SCHIZOPHRENIC PATIENTS” (Minerva Neurosciences, Inc., priority 2016, published 2019)",
  "key": {"histaminergic receptors": {"test_system": "histaminergic receptors", "assay": "receptor affinity", "type": "binding"}, "sigma2 [1]": {"target": "T1, sigma2 (Homo sapiens, UniProt Q5BJF2)", "T1 sequence (Q5BJF2 whole entry)": "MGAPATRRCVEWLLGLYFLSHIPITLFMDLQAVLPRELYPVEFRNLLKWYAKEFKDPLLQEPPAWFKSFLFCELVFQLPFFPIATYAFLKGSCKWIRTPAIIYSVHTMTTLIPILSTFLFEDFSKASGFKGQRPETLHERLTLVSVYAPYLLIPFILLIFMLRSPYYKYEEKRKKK", "assay": "in vivo functional studies", "parameters": "In vivo functional studies have established that MIN-101 is an antagonist; from tissue; host or cells: whole organism in vivo"}, "5-HT2A receptors": {"target": "T2, 5-HT2A receptors (Homo sapiens, UniProt P28223)", "T2 construct": "In vivo functional studies have established that MIN-101 is an antagonist; from tissue; host or cells: whole organism in vivo", "T2 sequence (P28223 whole entry)": "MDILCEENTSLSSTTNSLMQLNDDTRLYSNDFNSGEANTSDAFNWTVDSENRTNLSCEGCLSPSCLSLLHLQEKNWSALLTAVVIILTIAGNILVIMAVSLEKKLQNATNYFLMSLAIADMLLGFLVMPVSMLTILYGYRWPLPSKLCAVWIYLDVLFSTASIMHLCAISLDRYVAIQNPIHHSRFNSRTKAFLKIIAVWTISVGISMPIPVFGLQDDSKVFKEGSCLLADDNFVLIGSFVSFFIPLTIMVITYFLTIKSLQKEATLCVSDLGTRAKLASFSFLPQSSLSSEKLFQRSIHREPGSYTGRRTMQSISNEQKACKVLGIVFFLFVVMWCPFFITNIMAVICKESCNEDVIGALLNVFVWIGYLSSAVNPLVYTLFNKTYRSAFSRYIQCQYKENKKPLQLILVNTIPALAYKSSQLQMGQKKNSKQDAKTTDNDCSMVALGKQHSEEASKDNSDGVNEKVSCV", "assay": "in vivo functional studies"}, "cholinergic receptors": {"test_system": "cholinergic receptors", "assay": "receptor affinity", "type": "binding"}, "dopaminergic receptors": {"test_system": "dopaminergic receptors", "assay": "receptor affinity", "type": "binding"}, "[2]": {"test_system": "patients with negative symptoms of schizophrenia", "conditions": "for improvement of negative symptoms compared to placebo: 32 mg and 64 mg daily doses, 244 schizophrenic patients; for effect size, PANSS Negative Subscale score (pentagonal model), change from baseline vs placebo: schizophrenic patients"}, "muscarinic receptors": {"test_system": "muscarinic receptors", "assay": "receptor affinity", "type": "binding"}, "[3]": {"target": "5-hydroxytryptamine-2A (5-HT2A) (Homo sapiens, UniProt P28223)", "sequence (P28223 whole entry, species assumed)": "as the sequence (P28223 whole entry) above", "assay": "receptor affinity", "type": "binding"}, "sigma2 [4]": {"target": "T1, sigma2", "assay": "receptor affinity", "type": "binding"}, "α1-adrenergic receptors": {"test_system": "α1-adrenergic receptors", "assay": "receptor affinity", "type": "binding"}, "[5]": {"assay": "QT interval association of metabolite", "type": "in vivo", "conditions": "supra-therapeutic levels"}},
  "note": "Like-named read-outs stand apart in the source and are kept apart here.",
  "data": [
    {"smiles": "Cl.O.O.O=C(CN1CCC(CN2Cc3ccccc3C2=O)CC1)c1ccc(F)cc1", "note": "[MIN-101, 2-{1-[2-(4-Fluorophenyl)-2-oxoethyl]piperidin-4-ylmethyl}-2,3-dihydroisoindol-1-one monohydrochloride dihydrate]", "values": [
      {"measurement": "affinity for histaminergic receptors", "setting": "histaminergic receptors", "value": "very low or no affinity"},
      {"measurement": "functional activity at sigma2 receptors", "setting": "sigma2 [1]", "value": "antagonist"},
      {"measurement": "functional activity at 5-HT2A receptors", "setting": "5-HT2A receptors", "value": "antagonist"},
      {"measurement": "affinity for cholinergic receptors", "setting": "cholinergic receptors", "value": "very low or no affinity"},
      {"measurement": "affinity for dopaminergic receptors", "setting": "dopaminergic receptors", "value": "very low or no affinity"},
      {"measurement": "improvement of negative symptoms compared to placebo", "setting": "[2]; 12 weeks", "value": "statistically significant benefit"},
      {"measurement": "effect size, PANSS Negative Subscale score (pentagonal model), change from baseline vs placebo", "setting": "[2]; 32 mg daily, 12 weeks, p≤0.023", "value": 0.45},
      {"measurement": "effect size, PANSS total score vs placebo", "setting": "[2]; 32 mg daily, 12 weeks, not significant", "value": 0.35},
      {"measurement": "effect size, PANSS three factors negative symptoms subscale vs placebo", "setting": "[2]; 32 mg daily, 12 weeks, p≤0.006", "value": 0.55},
      {"measurement": "effect size, PANSS Negative Subscale score (pentagonal model), change from baseline vs placebo", "setting": "[2]; 64 mg daily, 12 weeks, p≤0.003", "value": 0.57},
      {"measurement": "effect size, PANSS three factors negative symptoms subscale vs placebo", "setting": "[2]; 64 mg daily, 12 weeks, p≤0.001", "value": 0.70},
      {"measurement": "effect size, PANSS total score vs placebo", "setting": "[2]; 64 mg daily, 12 weeks, p≤0.003", "value": 0.59},
      {"measurement": "positive symptoms during the trial", "setting": "[2]; 12-week trial", "value": "remained stable"},
      {"measurement": "effect on negative symptoms measured using the BNSS total score", "setting": "[2]; both doses (32 mg and 64 mg daily), 12 weeks", "value": "Improvement in negative symptoms"},
      {"measurement": "incidence and types of side effects, MIN-101 group vs placebo group", "setting": "[2]; human, in vivo", "value": "did not differ significantly"},
      {"measurement": "metabolic adverse effects", "setting": "[2]; human, in vivo", "value": "no metabolic adverse effects"},
      {"measurement": "prolactin elevation", "setting": "[2]; human, in vivo", "value": "no prolactin elevation"},
      {"measurement": "affinity for muscarinic receptors", "setting": "muscarinic receptors", "value": "very low or no affinity"}
    ]},
    {"smiles": "O=C(CN1CCC(CN2Cc3ccccc3C2=O)CC1)c1ccc(F)cc1", "note": "[Compound I]", "values": [
      {"measurement": "affinity for 5-HT2A", "setting": "[3]", "value": "specific affinities"},
      {"measurement": "affinity for sigma2", "setting": "sigma2 [4]", "value": "specific affinities"},
      {"measurement": "functional activity at sigma2 receptors", "setting": "sigma2 [1]", "value": "antagonizes sigma2 activity"},
      {"measurement": "affinity for α1-adrenergic receptors", "setting": "α1-adrenergic receptors", "value": "lower affinity levels"},
      {"measurement": "improvement of negative symptoms compared to placebo", "setting": "[2]; 12 weeks", "value": "statistically significant improvement"}
    ]},
    {"smiles": "O=C1c2ccccc2CN1CC1CCN(CC(O)c2ccc(F)cc2)CC1", "note": "(stereo not drawn) [BFB-520]", "values": [
      {"measurement": "effect on QT intervals", "setting": "[5]", "value": "prolongation of QT intervals"}
    ]}
  ]
}
